In the assay the target is full-length human BTK (Homo sapiens (Human), UniProt Q06187). The assay is described as follows: BTK IC50 enzyme assay (microfluidic off-chip mobility shift kinase assay). It is filed as biochemical. The conditions noted are these: incubated for 90 min. at 27 C; read-out: Time Dependent BTK Enzyme Assay IC50. As to the method: The following describes a microfluidic, off-chip mobility shift kinase assay used to measure inherent potency of compounds against BTK enzyme. Compounds described by embodiments of the present invention were assayed using this protocol and the data from the same is recorded in Table 2 within the column labeled: “Time Dependent BTK Enzyme Assay IC50”.
full-length human BTK, sequence (Q06187 whole entry): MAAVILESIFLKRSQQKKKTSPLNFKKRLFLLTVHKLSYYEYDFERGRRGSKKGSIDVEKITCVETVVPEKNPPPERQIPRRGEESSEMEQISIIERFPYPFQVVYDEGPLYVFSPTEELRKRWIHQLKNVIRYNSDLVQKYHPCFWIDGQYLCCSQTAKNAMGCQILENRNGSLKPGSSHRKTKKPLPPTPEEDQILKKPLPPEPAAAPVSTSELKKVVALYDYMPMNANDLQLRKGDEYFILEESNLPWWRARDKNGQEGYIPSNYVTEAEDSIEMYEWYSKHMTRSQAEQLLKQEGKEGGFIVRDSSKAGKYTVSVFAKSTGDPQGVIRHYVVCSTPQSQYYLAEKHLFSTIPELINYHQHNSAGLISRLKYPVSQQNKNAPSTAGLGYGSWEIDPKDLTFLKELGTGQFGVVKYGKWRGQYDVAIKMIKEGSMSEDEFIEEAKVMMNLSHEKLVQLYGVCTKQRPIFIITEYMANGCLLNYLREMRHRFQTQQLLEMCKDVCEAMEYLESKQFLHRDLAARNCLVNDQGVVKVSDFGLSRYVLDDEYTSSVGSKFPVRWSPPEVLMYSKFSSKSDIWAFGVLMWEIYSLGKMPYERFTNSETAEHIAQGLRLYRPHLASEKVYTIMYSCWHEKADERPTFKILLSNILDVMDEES
Stopped reactions were monitored at −2 PSI, −3000 V/−700 V in a LabChip 3000 plate reader from Caliper Life Sciences, a PerkinElmer Company (Hopkinton, Mass.), and the activity was measured by off-chip mobility shift assay measuring the charge/mass difference between substrate and product resulting from peptide phosphorylation. IC50 and efficacy were determined by plotting log [Inhibitor] vs. % Activity in GeneData Screener (Basel, Switzerland). […] I<1 uM and II>1 uM.

This passage reports IC50 results from patent publication US9580449B2, “Compositions and methods for the production of pyrimidine and pyridine compounds with BTK inhibitory activity” (Merck Patent GmbH, priority 2011, dated 2017).

By IC50 is commonly meant the point on the concentration scale where inhibition reaches its midpoint.

On to `C=CC(=O)N1CCC(CNc2ncnc(N)c2-c2ccc(OC)cc2)CC1` [A85, 1-(4-(((6-amino-5-(4-methoxyphenyl)pyrimidin-4-yl)amino)methyl)piperidin-1-yl)prop-2-en-1-one], for which the IC50 was above 1000 nM.

With `Nc1ncnc(NCC2CCN(c3cccc(Cl)n3)CC2)c1-c1ccc(Oc2ccccc2)cc1` [A337, N4-((1-(6-chloropyridin-2-yl)piperidin-4-yl)methyl)-5-(4-phenoxyphenyl)pyrimidine-4,6-diamine], the half-maximal inhibitory concentration (IC50) was above 1000 nM.

Turning to `Nc1ncnc(N[C@@H]2CCCN(S(=O)(=O)c3c(F)c(F)c(F)c(F)c3F)C2)c1-c1ccc(Oc2ccccc2)cc1` [A179, (R)-N4-(1-((perfluorophenyl)sulfonyl)piperidin-3-yl)-5-(4-phenoxyphenyl)pyrimidine-4,6-diamine], the IC50 was below 1000 nM.

Consider `C=CC(=O)N1CCC(CCNc2ncnc(N)c2-c2ccc(Oc3ccccc3)cc2)CC1` [A16, 1-(4-(2-((6-amino-5-(4-phenoxyphenyl)pyrimidin-4-yl)amino)ethyl)piperidin-1-yl)prop-2-en-1-one], for which the IC50 is above 1000 nM.

As for `C=CC(=O)Nc1cccc(Oc2ncnc(N)c2-c2ccc(OCc3ccccc3)c(OC)c2)c1` [A256, N-(3-((6-amino-5-(4-(benzyloxy)-3-methoxyphenyl)pyrimidin-4-yl)oxy)phenyl)acrylamide], the IC50 is below 100 nM.

As to `Nc1ncnc(N[C@@H]2CCN(S(=O)(=O)c3c(F)c(F)c(F)c(F)c3F)C2)c1-c1ccc(Oc2ccccc2)cc1` [A178, (R)-N4-(1-((perfluorophenyl)sulfonyl)pyrrolidin-3-yl)-5-(4-phenoxyphenyl)pyrimidine-4,6-diamine], the IC50 was below 100 nM.

For the compound `C=CC(=O)NC1CC2(C1)CC(Nc1ncnc(N)c1-c1ccc(Oc3ccccc3)cc1)C2` (stereo not drawn) [A122, N-(6-((6-amino-5-(4-phenoxyphenyl)pyrimidin-4-v)amino)spiro[3.3]heptan-2-yl)acrylamide], the IC50 was above 1000 nM.

For the compound `CC=CC(=O)[C@H]1CCC[C@H](Nc2ncnc(N)c2-c2ccc(Oc3ccccc3)cc2)C1` [A144, 1-((1S,3S)-3-(6-Amino-5-(4-phenoxyphenyl)-pyrimidin-4-ylamino)-cyclohexyl)-but-2-en-1-one], the IC50 is below 100 nM.

`C=CC(=O)N1CCC(F)(CNc2ncnc(N)c2-c2ccc(Oc3ccccc3)cc2)CC1` [A225, 1-(4-(((6-amino-5-(4-phenoxyphenyl)pyrimidin-4-yl)amino)methyl)-4-fluoropiperidin-1-yl)prop-2-en-1-one]: the IC50 is below 100 nM.

Regarding `C=CC(=O)Nc1cccc(Oc2ncnc(N)c2-c2ccc(OCc3cccc(F)c3)cc2)c1` [A260, N-(3-((6-amino-5-(4-((3-fluorobenzyl)oxy)phenyl)pyrimidin-4-yl)oxy)phenyl)acrylamide], the IC50 is below 100 nM.

`CCC(=O)Nc1cccc(Oc2ncnc(N)c2-c2ccc(Oc3ccccc3)cc2)c1` [A326, N-(3-((6-amino-5-(4-phenoxyphenyl)pyrimidin-4-yl)oxy)phenyl)propionamide]: the IC50 is above 1000 nM.

As to `C=CC(=O)N1CCC=C(c2c(N)ncnc2Nc2ccc(Oc3ccccc3)cc2)C1` [A273, 1-(3-(4-amino-6-((4-phenoxyphenyl)amino)pyrimidin-5-yl)-5,6-dihydropyridin-1(2H)-yl)prop-2-en-1-one], the IC50 was below 100 nM.

For the compound `C=CC(=O)Nc1cccc(-c2c(N)ncnc2N[C@H](C)c2ccccc2)c1` [A311, (R)-N-(3-(4-amino-6-((1-phenylethyl)amino)pyrimidin-5-yl)phenyl)acrylamide], the IC50 is above 1000 nM.

Take `C=CC(=O)Nc1cccc(-c2cnccc2Nc2ccc(Oc3ccccc3)cc2)c1` [A267, N-(3-(4-((4-phenoxyphenyl)amino)pyridin-3-yl)phenyl)acrylamide]: the IC50 was below 100 nM.

`C=CC(=O)N1CCC(CNc2ncnc(N)c2-c2ccc(C(F)(F)F)cc2)CC1` [A81, 1-(4-(((6-amino-5-(4-(trifluoromethyl)phenyl)pyrimidin-4-yl)amino)methyl)piperidin-1-yl)prop-2-en-1-one]: the IC50 was above 1000 nM.

For the compound `C=CC(=O)N1CCC(CNc2ncnc(N)c2-c2ccc(OCc3ccccc3)cc2)CC1` [A292, 1-(4-(((6-amino-5-(4-(benzyloxy)phenyl)pyrimidin-4-yl)amino)methyl)piperidin-1-yl)prop-2-en-1-one], the IC50 was below 1000 nM.

In the case of `C=CC(=O)NC12CCC(Nc3ncnc(N)c3-c3ccc(Oc4ccccc4)cc3)(C1)C2` [A177, N-(4-((6-amino-5-(4-phenoxyphenyl)pyrimidin-4-yl)amino)bicyclo[2.1.1]hexan-1-yl)acrylamide], the concentration for half-maximal inhibition (IC50) is below 100 nM.

Consider `Nc1ncnc(Oc2cccc(NC(=O)CCl)c2)c1-c1ccc(Oc2ccccc2)cc1` [A342, N-{3-[6-Amino-5-(4-phenoxy-phenyl)-pyrimidin-4-yloxy]-phenyl}-2-chloroacetamide], for which the IC50 is below 100 nM.

On to `C=CC(=O)Nc1cccc(Oc2ncnc(N)c2-c2ccc(C(=O)N3CCCC3)cc2)c1` [A285, N-(3-((6-amino-5-(4-(pyrrolidine-1-carbonyl)phenyl)pyrimidin-4-yl)oxy)phenyl)acrylamide], for which the IC50 was below 1000 nM.

With `Nc1cccc(-c2c(N)ncnc2Oc2ccc(Oc3ccccc3)cc2)c1` [A317, 5-(3-aminophenyl)-6-(4-phenoxyphenoxy)pyrimidin-4-amine], the concentration for half-maximal inhibition (IC50) was above 1000 nM.

Consider `C=CC(=O)Nc1cccc(Oc2ncnc(N)c2-c2ccc(OCc3ccccc3OC)cc2)c1` [A254, N-(3-((6-amino-5-(4-((2-methoxybenzyl)oxy)phenyl)pyrimidin-4-yl)oxy)phenyl)acrylamide], for which the IC50 was below 100 nM.

Take `C=CC(=O)Nc1cccc(Oc2ncnc(N)c2-c2cnn(Cc3cccc(OC)c3)c2)c1` [A198, N-(3-((6-amino-5-(1-(3-methoxybenzyl)-1H-pyrazol-4-yl)pyrimidin-4-yl)oxy)phenyl)acrylamide]: the IC50 was below 100 nM.

Consider `C=CC(=O)Nc1cccc(Oc2ncnc(N)c2-c2ccc(OCc3ccccc3)c(F)c2F)c1` [A257, N-(3-((6-amino-5-(4-(benzyloxy)-2,3-difluorophenyl)pyrimidin-4-yl)oxy)phenyl)acrylamide], for which the concentration for half-maximal inhibition (IC50) is below 100 nM.

In the case of `C=CC(=O)N1CCC(CNc2ncnc(N)c2-c2ccc(Oc3ccccc3)c(F)c2F)CC1` [A88, 1-(4-(((6-amino-5-(2,3-difluoro-4-phenoxyphenyl)pyrimidin-4-yl)amino)methyl)piperidin-1-yl)prop-2-en-1-one], the half-inhibitory concentration (IC50) is below 100 nM.

As for `Nc1ncnc(Oc2cccc(NC(=O)CCl)c2)c1-c1ccc(OCc2ccccc2)cc1` [A347, N-{3-[6-Amino-5-(4-benzyloxy-phenyl)-pyrimidin-4-yloxy]-phenyl}-2-chloro-acetamide], the IC50 is below 100 nM.

As to `C#CC(=O)N1CCC(CNc2ncnc(N)c2-c2ccc(Oc3ccccc3)cc2)CC1` [A46, 1-(4-(((6-amino-5-(4-phenoxyphenyl)pyrimidin-4-yl)amino)methyl)piperidin-1-yl)prop-2-yn-1-one], the half-inhibitory concentration (IC50) was below 100 nM.

As for `C=CC(=O)Nc1cccc(-c2cncnc2Nc2ccc(Oc3ccccc3)cc2)c1` [A283, N-(3-(4-((4-phenoxyphenyl)amino)pyrimidin-5-yl)phenyl)acrylamide], the IC50 was below 1000 nM.

Turning to `C=CC(=O)Nc1cccc(Oc2ncnc(N)c2-c2ccc(Oc3ccccn3)cc2)c1` [A162, N-(3-((6-amino-5-(4-(pyridin-2-yloxy)phenyl)pyrimidin-4-yl)oxy)phenyl)acrylamide], the IC50 was below 100 nM.

In the case of `C=CC(=O)N1CCC=C(c2c(N)ncnc2Oc2ccc(Oc3ccccc3)cc2)C1` [A279, 1-(3-(4-amino-6-(4-phenoxyphenoxy)pyrimidin-5-yl)-5,6-dihydropyridin-1(2H)-yl)prop-2-en-1-one], the concentration for half-maximal inhibition (IC50) was below 100 nM.

For the compound `C=CC(=O)N1CCC(CNc2ncnc(N)c2-c2cc(OC)c(OC)c(OC)c2)CC1` [A83, 1-(4-(((6-amino-5-(3,4,5-trimethoxyphenyl)pyrimidin-4-yl)amino)methyl)piperidin-1-yl)prop-2-en-1-one], the IC50 is below 1000 nM.

For the compound `C=CC(=O)N1CCO[C@@H](COc2ncnc(N)c2-c2ccc(Oc3ccccc3)cc2)C1` [A66, (R)-1-(2-(((6-amino-5-(4-phenoxyphenyl)pyrimidin-4-yl)oxy)methyl)morpholino)prop-2-en-1-one], the IC50 was below 100 nM.

`C=CC(=O)N1CCC(O)(CNc2ncnc(N)c2-c2ccc(Oc3cccc(C(F)(F)F)c3)cc2)CC1` [A169, 1-(4-(((6-amino-5-(4-(3-(trifluoromethyl)phenoxy)phenyl)pyrimidin-4-yl)amino)methyl)-4-hydroxypiperidin-1-yl)prop-2-en-1-one]: the IC50 was below 100 nM.

Turning to `C=CC(=O)Nc1cccc(Oc2ncnc(N)c2-c2cccc(S(N)(=O)=O)c2)c1` [A163, N-(3-((6-amino-5-(3-sulfamoylphenyl)pyrimidin-4-yl)oxy)phenyl)acrylamide], the half-maximal inhibitory concentration (IC50) is above 1000 nM.

Consider `CN(C)C/C=C/C(=O)N1CCC2(CC(Nc3ncnc(N)c3-c3ccc(Oc4ccccc4)cc3)C2)C1` (stereo not drawn) [A226, (E)-1-(2-((6-amino-5-(4-phenoxyphenyl)pyrimidin-4-yl)amino)-6-azaspiro[3.4]octan-6-yl)-4-(dimethylamino)but-2-en-1-one], for which the IC50 was below 1000 nM.

Consider `C=CC(=O)Nc1cccc(Oc2ncnc(N)c2-c2ccc(OCc3ccccc3)cc2F)c1` [A349, N-{3-[6-Amino-5-(4-benzyloxy-2-fluoro-phenyl)-pyrimidin-4-yloxy]-phenyl}-acrylamide], for which the IC50 was below 100 nM.

`C=CC(=O)N1CCC(CNc2ncnc(N)c2-c2ccc(Oc3cccnc3)cc2)CC1` [A96, 1-(4-(((6-amino-5-(4-(pyridin-3-yloxy)phenyl)pyrimidin-4-yl)amino)methyl)piperidin-1-yl)prop-2-en-1-one]: the IC50 is below 1000 nM.
